# Measurements: PMC8878317, “Chemogenomics identifies acetyl-coenzyme A synthetase as a target for malaria treatment and prevention” (Cell Chemical Biology, 2022)
# Read-outs that look alike come from different tables or passages of the source.
# Legend:
# [1] = tested on: liver-stage P. berghei parasites (Pbluc); assay: Liver-stage P. berghei assay (Pbluc); type: cell-based; conditions: Plasmodium berghei
# [2] = molecular target: T1, PfAcAS A597V (Plasmodium falciparum, UniProt C6KTB4, A597V); assay: EnzChek assay, recombinant PfAcAS A597V; type: biochemical, P. falciparum
# T1 sequence (C6KTB4 1-997 A597V): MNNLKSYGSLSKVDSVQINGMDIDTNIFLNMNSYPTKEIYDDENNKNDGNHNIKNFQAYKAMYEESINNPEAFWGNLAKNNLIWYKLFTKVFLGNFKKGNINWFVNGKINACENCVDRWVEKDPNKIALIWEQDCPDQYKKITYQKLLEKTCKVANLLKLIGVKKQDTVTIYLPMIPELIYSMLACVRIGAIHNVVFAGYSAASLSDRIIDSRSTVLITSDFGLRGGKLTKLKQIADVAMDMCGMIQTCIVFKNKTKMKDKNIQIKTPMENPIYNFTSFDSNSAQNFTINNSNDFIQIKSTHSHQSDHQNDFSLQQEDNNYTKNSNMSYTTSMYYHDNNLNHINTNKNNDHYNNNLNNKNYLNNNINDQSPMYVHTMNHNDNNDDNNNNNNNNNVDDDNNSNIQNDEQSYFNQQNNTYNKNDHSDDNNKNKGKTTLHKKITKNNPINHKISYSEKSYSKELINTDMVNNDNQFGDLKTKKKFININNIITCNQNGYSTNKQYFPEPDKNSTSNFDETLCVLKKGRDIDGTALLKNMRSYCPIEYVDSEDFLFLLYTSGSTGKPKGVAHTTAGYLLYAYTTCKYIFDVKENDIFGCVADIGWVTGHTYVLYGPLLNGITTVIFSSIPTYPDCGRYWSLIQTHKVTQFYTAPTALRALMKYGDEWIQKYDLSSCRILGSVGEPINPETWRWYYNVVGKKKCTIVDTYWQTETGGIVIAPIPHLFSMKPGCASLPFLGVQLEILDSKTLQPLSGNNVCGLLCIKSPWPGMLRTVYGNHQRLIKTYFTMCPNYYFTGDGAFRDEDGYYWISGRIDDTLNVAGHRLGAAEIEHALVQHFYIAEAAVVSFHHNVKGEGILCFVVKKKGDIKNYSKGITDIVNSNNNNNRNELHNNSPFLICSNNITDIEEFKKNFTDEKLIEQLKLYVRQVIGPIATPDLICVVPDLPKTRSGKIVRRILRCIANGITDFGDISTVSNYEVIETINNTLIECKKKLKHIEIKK
# Experimental: (§1) Steady-state kinetic measurements were conducted at room temperature using a PheraStar plate reader (BMG). The first step of the reaction of PfAcAS, which produces inorganic pyrophosphate (PPi) that is converted to two molecules of inorganic phosphate using a pyrophosphatase enzyme, was continuously monitored using the EnzChek Phosphate Assay Kit, which gives an absorbance readout at 360 nm (Figure 4A) ([Webb, 1992]). […] By adding CoA, the reaction rapidly proceeds to the second step resulting in further release of pyrophosphate, making the EnzChek assay a suitable option to continuously monitor the activity of PfAcAS. Typical kinetic assays were carried out in clear, flat-bottom, polystyrene, 384-well plates (Greiner) in an 80 μL reaction volume containing 100 mM HEPES (pH7.4), 100 mM NaCl, 250 mM KCl, 50 mM MgCl2, 1 mM DTT, 0.004% Tween 20, 0.5 U/mL pyrophosphatase, 0.1 mM MESG, 0.5 U/mL PNP, 2 mM ATP, 2 mM acetate, 0.5 mM CoA and 5 nM recombinant PfAcAS WT or 10 nM recombinant PfAcAS A597V or T648M. Assays were performed by adding 40 μL of a 2-times concentrated substrate mixture including MESG to all wells, and the reactions started by adding 40 μL of a 2-times concentrated reaction mixture containing all other components. The reactions were carried out for 2 to 4 hr with absorbance readings at 360 nm every two to four minutes. Reaction rates were extracted from the linear phase of activity, usually using 10 to 20 points between times of 30 and 100 min of the reactions. Using a phosphate standard curve obtained under the same buffer conditions used for the PfAcAS reactions (Figure S5A), the rates were then converted to velocity per second, conversion of one nanomolar of phosphate, per nanomolar of enzyme, per second. The substrates Km values were determined by varying the concentration of one of the substrates at saturating concentration of the other two substrates. Steady-state data were fitted using the nonlinear, least-squares, curve-fitting programs of Sigma-Plot for Windows, version 14.0. Individual saturation curves were fit to Equation 1(Equation 1) v=VS/K+S where V is the maximal velocity, S is the substrate concentration and K is the Michaelis constant for the substrate (Km). Individual saturation curves displaying substrate inhibition were fit to Equation 2(Equation 2) v=VS/K+S×(1+S/Ks) where Ks is the substrate inhibition constant.
# (§2) To determine the steady-state inhibition parameters and patterns associated with both inhibitors, PfAcAS activity was studied in the presence of variable concentrations of one substrate, ATP, acetate or CoA, fixed saturating concentration of the other two substrates (acetate and CoA, ATP and CoA, or ATP and acetate) and several fixed concentrations of inhibitor. Assay ready plates containing different concentrations of inhibitor were prepared using an Echo 550 acoustic dispenser (Labcyte Inc.). The assays were carried out as described in the previous section. […] For better comparison between both inhibitors and proteins, the ymin was fixed to zero and the ymax to 100. Inhibition data showing linear, competitive patterns in double-reciprocal plots were fit to Equation 4(Equation 4) v=VS/K(1+I/Ki)+S where Ki is the dissociation constant for the enzyme-inhibitor complex. Inhibition data showing linear, mixed inhibition patterns in double-reciprocal plots were fit to Equation 5(Equation 5) v=VS/K(1+I/Kis)+S(1+I/Kii) where Kis is the dissociation constant for the free enzyme-inhibitor complex and Kii is the dissociation constant for the enzyme-substrate-inhibitor complex. Inhibition data showing linear, uncompetitive patterns in double-reciprocal plots were fit to Equation 6(Equation 6) v=VS/K+S(1+I/Ki)
# [3] = molecular target: PfAcAS WT (Plasmodium falciparum, UniProt C6KTB4); assay: EnzChek assay, recombinant PfAcAS WT (steady-state kinetics and IC50); type: biochemical, P. falciparum
# Experimental: as §1, §2
# [4] = tested on: P. falciparum control YFP cKD line; assay: cKD compound susceptibility assay, control YFP cKD line; type: cell-based; conditions: Plasmodium falciparum
# Experimental: Synchronous ring-stage, aptamer-regulated PfAcAS and control parasite lines were resuspended in varying aTc concentrations (high = 50 nM, low = 1 nM, and no aTc) and distributed into the drug plate. DMSO carrier and chloroquine (200 nM) wells served as positive and negative controls.
# [5] = read-out: control cKD EC50 ± SD (nM) (0nM aTc)
# [6] = read-out: control cKD EC50 ± SD (nM) (50nM aTc)
Compound,EC50 [1],IC50 [2],"Hill, AcAS WT [3]",IC50 [3],"EC50 [4, 5]","EC50 [4, 6]","Hill, AcAS A597V [2]"
O=C(NNC(=O)c1csnn1)c1ccc(Cl)cc1 [MMV084978],520 ± 210 nM,> 100000 nM,0.85 ± 0.06,370 ± 40 nM,240 ± 29 nM,230 ± 23 nM,–
CCN(CC)S(=O)(=O)c1ccc(Cl)c(C(=O)Nc2ccc3nc(C)sc3c2)c1 [MMV019721],2100 nM,6900 ± 1200 nM,0.85 ± 0.04,73 ± 4 nM,200 ± 61 nM,210 ± 80 nM,0.58 ± 0.05
